We go through 5 compounds from BindingDB's records for doi:10.1080/14756360802608351 (Ataturk University, 2009).

pIC50, pKi: −log10 of the molar value.

Serum paraoxonase/arylesterase 1, sequence (P27169 whole entry): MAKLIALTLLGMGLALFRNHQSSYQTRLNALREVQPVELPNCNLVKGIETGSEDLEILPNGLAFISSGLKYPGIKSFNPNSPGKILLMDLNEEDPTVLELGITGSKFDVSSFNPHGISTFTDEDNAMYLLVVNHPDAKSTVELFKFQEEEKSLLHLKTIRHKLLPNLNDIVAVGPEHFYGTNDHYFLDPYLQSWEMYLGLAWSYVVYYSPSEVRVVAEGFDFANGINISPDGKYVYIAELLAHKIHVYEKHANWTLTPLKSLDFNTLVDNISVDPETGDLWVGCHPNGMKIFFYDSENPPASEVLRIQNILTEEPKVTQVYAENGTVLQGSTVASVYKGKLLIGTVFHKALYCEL

The assay addresses Serum paraoxonase/arylesterase 1 (Homo sapiens, UniProt P27169). In words: Paraoxonase Activity Assay. Particulars: pH 10.5; 25 °C. From the text: The enzyme assay was based on the estimation of p-nitrophenol at 412nm. The molar extinction coefficient of p-nitrophenol was used to calculate enzyme activity.
`CC(C(=O)O)c1cccc(C(=O)c2ccccc2)c1` (stereo not given) [2-(3-benzoylphenyl)propanoic acid]: the pIC50 was 2.21 and the pKi is 1.89.

Take `COc1ccc2c(c1)c(CC(=O)O)c(C)n2C(=O)c1ccc(Cl)cc1` [indometacin]: the pIC50 is 3.71 and the pKi was 4.01.

For `CN1C(C(=O)Nc2ccccn2)=C(O)c2sccc2S1(=O)=O` [Tenoxicam], the pIC50 was 3.47 and the pKi is 3.51.

The compound `CN1C(C(=O)Nc2ccccn2)=C(O)c2sc(Cl)cc2S1(=O)=O` [Lornoxicam] gave a pIC50 of 3.87 and a pKi of 5.05.

On to `CCCC1CC(C(=O)NC(C(C)O)C2OC(SC)C(O)C(O)C2O)N(C)C1` (stereo not given) [Lincomycine], for which the pIC50 was 2.02 and the pKi is 1.95.

By pIC50 is commonly meant the IC50 on a negative log10 scale, so that one unit is a factor of ten. A word on the pKi: it is the Ki on a negative log10 scale, so that one unit is a factor of ten. The low end stands for a high Ki, the high end for a low Ki.
